According to patent publication US10918655B2, “Stimulating platelet generation by activating mitochondrial biogenesis” (THE GENERAL HOSPITAL CORPORATION, priority 2016, dated 2021):
Blank lines part the entries; values can stand above or below the molecule they belong to.

What was measured:
Mouse MKs = test: platelet production ex vivo from MKs in the presence of mito-drugs; assay type: cell-based; conditions: for platelet generation from MKs ex vivo: Bezafibrate 400 μM, Resveratrol 50 μM, SRT1720 0.1 μM, AICAR 500 μM, MK medium for 3 days, compared to controls
Procedure: FIG. 9 provides a graph showing enhancement of platelet production ex vivo by mito-drugs. C. control; Bez, Bezafibrate (400 μM); Res, Resveratrol (50 μM); SRT1720, 0.1 μM; Aicar, AICAR (500 μM); LLL, 810 nm 3 J/cm^2. Mouse MKs were differentiated in MK medium for 3 days in the presence of an indicated drug or after LLLT. **, p<0.01 and ***, p<0.001 compared to controls. n=6.
Some mito-drugs tested enhance platelet production from MKs ex vivo. […] The concentration used for individual drugs is the one commonly used for inducing PGC-1α expression in other cell cultures except for SRT1720 that was used at a 100× lower concentration. […] Perhaps, the concentration of each drug can be further optimized for enhancing platelet production.

5-FU-treated mice = test: platelet production in vivo in 5-FU-induced thrombocytopenia with mito-drugs; design: species or system B6 mice; conditions: 100 mg/kg gavage twice a day for 4 days
Procedure: FIG. 10 provides a graph showing the enhancement of plt production by mito-drugs in vivo. All mice were treated with two doses of 5-FU (FU), along with an indicated mito-drug or LLLT for 4 consecutive days (red arrow). *, p<0.05, **, p<0.01 and ***, p<0.001 in the presence or absence of indicated drugs or LLLT. n=10 in each group.
The 5-FU-treated mice were gavaged with BEZ or Res at 100 mg/kg body weight or vehicle control twice a day for 4 consecutive days starting at 6 hr after the first 5-FU injection. For comparison, 5-FU-treated mice were also administered LLL daily for 4 consecutive days in parallel. […] Whether or not a higher dose or dosage of BEZ can further increase the efficacy remains to be investigated.

MKs [1] = test: ATP measurement in MKs with Oligomycin A; assay type: cell-based, mouse; conditions: 5 μg/ml
Procedure: (§1) FIGS. 1A-1H provide graphs and images showing LLL promotes MK maturation and platelet production. (A) Illustration of time lines of ex vivo platelet differentiation from MKs. CD41+ FSC^high MKs were sorted from BM cells, treated with or without LLL, and cultured in MK medium. MKs were collected 1 hr later for cellular ATP measurement (B), 1 day for studying proplatelet formation (C-F) or 3 days for counting platelets (G). (B) ATP was measured in 5×10^4 MKs treated with LLL at various energy densities. (C) Sizes of CD41+ MKs were analyzed by flow cytometric analysis of forward/side scatter (FSC) before and after 24 hr differentiation. (D) Representative transmission electron micrographs of MKs from at least 6 samples per group with 30 cells in each group. N, nuclear; IMS, invaginated membrane system. […] (F) The numbers indicated percentages of small or large PPF-MKs of at least 500 MKs analyzed per sample and 6 samples per group. ###P<0.001, large PPF-MKs and **P<0.01, total PPF-MKs compared between the two groups. […]
(§2) FIGS. 2A-2H provide graphs and images showing the thrombopoietic effect of LLL is ATP-dependent. (A) Correlations between MK ATP levels at 1 hr post-LLL and platelets measured in 3 days later are analyzed by coefficient of determination. […] Mitochondrial membrane potential of CD41+ FSC^high MKs was determined by flow cytometric analysis of red J-aggregate fluorescence at 590 nm. […]

MKs [2] = test: platelet production from LLL-treated MKs with Oligomycin A in MK medium; assay type: cell-based, mouse; conditions: 5 μg/ml in MK medium
Procedure: as §1, §2

[3] = tested on: circulating platelet counts; test: circulating platelet counts in mice receiving 5-FU; assay type: in vivo; conditions: on day 4; dose of 150 mg/kg body weight
Procedure: FIGS. 6A-6D provide graphs showing that LLL alleviates thrombocytopenia induced by anti-CD41 antibody or 5-FU in mice. (A and B) Mice were administered daily with 0.1 mg/kg anti-CD41 antibody over 7 days. LLL was given daily from day 3 to day 7. […] LLL was given daily for 3 consecutive days starting at 4 hr after 5-FU injection. Platelet counts (A and C) were measured daily at 6 hr post-LLL and a tail bleeding time (B and D) was examined on day 5 (B) or day 4 (D). n=6; ns, no significance; and *P<0.05, **P<0.01, ***P<0.001 compared between indicated groups.
We further extended our investigation to ITP precluding that LLL-mediated thrombopoiesis was specific for thrombocytopenia induced by γ-irradiation. We depleted platelets by administering anti-CD41 antibody daily at 0.1 mg/kg body weight from day 0 to day 7 to create a commonly used animal model of ITP. Katsman et al., Transfusion 50, 1285-1294 (2010). […] LLL lifted the nadir effectively after only two treatments (day 4) and greatly accelerated a recovery of platelet counts in the presence of anti-CD41 antibody, although platelet counts were rebound in all the mice eventually owing to compensatory thrombopoiesis (FIG. 6A). Bleeding time was also normalized on day 5 in LLL-treated animals (FIG. 6B). […]

IEX-1-deficient mice = conditions: Ramsey et al., Platelets 2015; cited from earlier work
PPF-MKs = conditions: Richardson et al., Blood 2005; cited from earlier work

SMILES: O=C(Nc1ccccc1-c1cn2c(CN3CCNCC3)csc2n1)c1cnc2ccccc2n1 [SRT1720]
- platelet generation from MKs ex vivo (Mouse MKs): enhance platelet generation from MKs ex vivo significantly
- platelet production (Mouse MKs; higher concentration of SRT1720 (than 0.1 μM)): did not increase platelet production significantly

SMILES: CC(C)(Oc1ccc(CCNC(=O)c2ccc(Cl)cc2)cc1)C(=O)O [BEZ, bezafibrate]
- platelet counts sustained (5-FU-treated mice; 5-FU 120 and 90 mg/kg on days 1 and 4): ≥ 70 % the normal value

SMILES: CC[C@@H]1/C=C/C=C/C[C@H](C)[C@H](O)[C@](C)(O)C(=O)[C@H](C)[C@@H](O)[C@H](C)C(=O)[C@H](C)[C@@H](O)[C@H](C)/C=C/C(=O)O[C@H]2[C@@H](C)[C@@H](CC1)O[C@@]1(CC[C@@H](C)[C@@H](C[C@H](C)O)O1)[C@@H]2C [Oligomycin A]
- ATP synthesis in the cells (MKs [1]): reduces ATP synthesis
- LLL-mediated enhancement of platelet generation (MKs [2]): severely blunted

- diminished circulating platelet counts [3]: 43%
SMILES: O=c1[nH]cc(F)c(=O)[nH]1 [5-FU, 5-fluorouracil]

SMILES: Oc1ccc(C=Cc2cc(O)cc(O)c2)cc1 [resveratrol]
- efficacy compared to BEZ or LLLT (5-FU-treated mice; 5-FU-treated mice): relatively weak
- nadir of platelet counts (5-FU-treated mice; 5-FU-treated mice): lifted the nadir significantly
- platelet biogenesis (5-FU-treated mice; 5-FU-treated mice): augmented platelet biogenesis
- platelet generation from MKs ex vivo (Mouse MKs): enhance platelet generation from MKs ex vivo significantly

SMILES: COC1=C(OC)C(=O)C(CCCCCCCCCC[P+](c2ccccc2)(c2ccccc2)c2ccccc2)=C(C)C1=O [mitoquinone]
- thrombocytopenia in IEX-1-deficient mice (IEX-1-deficient mice): completely reverse thrombocytopenia

SMILES: Nc1ncnc2c1ncn2[C@@H]1O[C@H](COP(=O)(O)OP(=O)(O)OP(=O)(O)O)[C@@H](O)[C@H]1O [ATP]
- proplatelet elongation (PPF-MKs): activated proplatelet elongation
- proplatelet growth (PPF-MKs): significantly enhanced proplatelet growth
